What was measured:
in vivo [1] = conditions: male, C57BL/6J, mouse, po, 25 mg/kg; for concentration at […]: […] post last day (Day 4) dose
Method: Male C57BL/6J mice were purchased from Si Bei Fu Laboratory Animal Technology Co. Ltd (Beijing, China). The animals were about 8 weeks old with body weights of 20-30 g on the dosing date. The animals were housed in a 12-hour light/12-hour dark cycle environment and had free access to food and water. All animals were fasted overnight and fed after 4 hours collection.
The formulation was freshly made prior to use. Preparation of formulation for oral dosing are as follows:
For Group 1 and 2, blood, CSF and brain samples were collected from 3 mice at the following time points.
Plasma samples: About 30 μL or 300 μL of blood samples were collected from each animal via dorsal metatarsal vein or heart. These blood samples were placed into the tubes containing K2EDTA. And centrifugation at 3000 g for 10 minutes in a 4° C. centrifuge. The completion time from collection was less than 30 min. The stabilizing agent of ascorbic acid at 200 mg/mL was added in a proportion of 10% in plasma. The plasma samples were stored in a freezer at −75±15° C. prior to analysis. The completion time from collection was less than 60 min.
Brain and CSF Samples: The animals were fully exsanguinated with a rising concentration of CO2 gas prior to CSF and brain collection.
For CSF collection, make an incision by scissors on the neck of the rats, and the foramen magnum is exposed to the sight of scientist. Use a syringe with a venoclysis needle to sample the CSF, the tip of the needle is insert into the membrane of foramen magnum about 1-2 mm, and then pull the stopcock a small length of the syringe to make a negative pressure, then the CSF fluids to the tube. Watch the fluid in the tube and pull the stopcock slowly, when the amount of the CSF is enough, stop and split the needle and the syringe to ensure there is no negative pressure in the tube. Then cut off the needle and collect the CSF fluid. If we could see the blood in the tube, stop immediately, split the needle and the syringe, and then cut off between the blood and CSF to ensure there is no blood in the CSF fluid. Then collect the CSF fluid. The stabilizing agent of ascorbic acid at 200 mg/mL was added in a proportion of 10% in CSF. The completion time from collection was less than 60 min.
For brain collection. Brain samples were collected at adopted time point, and washed 3 times with cold saline, then dried with clean gauze and put into the weighed tube, quick frozen in ice box and kept at −75±15° C. All brain samples were weighted and homogenized with phosphate buffered saline (PBS) by brain weight (g) to PBS volume (mL) ratio 1:3 before analysis. The stabilizing agent of ascorbic acid at 200 mg/mL was added in a proportion of 10% in Brain homogenate. The actual concentration was the detected value multiplied by the dilution factor. Brain samples were collected at designed time point, quickly homogenized and kept at −75±15° C. The completion time from collection was less than 60 min.
Calibration standard working solutions were prepared at concentrations of 0.2, 0.5, 1, 2, 5, 10, 50, 100, 500, 1000 ng/mL by serial dilution of the standard stock solution. These QC samples were prepared on the day of analysis in the same way as calibration standards.
Plasma: The desired serial concentrations of working solutions were achieved by diluting stock solution of analyte with 50% acetonitrile in water solution. 10 μL of working solutions (0.1, 0.2, 0.5, 1, 2, 5, 10, 50, 100, 500, 1000 ng/mL) were added to 10 μL of the blank C57BL/6J Mice plasma to achieve calibration standards of 0.1˜1000 ng/mL (0.1, 0.2, 0.5, 1, 2, 5, 10, 50, 100, 500, 1000 ng/mL) in a total volume of 20 μL.

in vivo [2] = conditions: male, cynomolgus monkey, po, 10 mg/kg, Plasma concentration, fed male Cynomolgus Monkeys
Method: Three male Cynomolgus Monkeys were administrated a single oral dose at 10 mg/kg. The oral vehicle was 10% (w/v) HP-β-CD in water.
Male Cynomolgus Monkeys were purchased from Topgene Biotechnology. The animals were 2-5 years old with body weights of 2.0-5.0 kg on the dosing date. The animals were housed in a 12-hour light/12-hour dark cycle environment and had free access to food and water.
All animals for PO administration were fasted overnight prior to dosing and will be fed approximately 2 hours after dosing.
Three male Cynomolgus Monkeys were assigned to this study. […] The dosing regimens and formulation (vehicle) compositions are described in the following table below:
Animals were weighed prior to dose administration on the day of dosing for calculating the actual dose volume. The dosages were prepared as illustrated in the table below:
Blood samples were taken at the following times:
Whole blood samples were gently inverted several times to ensure anticoagulation then placed on wet ice prior to centrifugation. Within 30 minutes of collection, the samples were centrifuged at approximately 4,000×g (force) for 5 minutes at 2 to 8° C. to obtain plasma. The stabilizing agent, ascorbic acid at 200 mg/mL, was added in a proportion of 10% in plasma. The plasma samples were stored in a freezer at −75±15° C. prior to analysis. The completion time from collection was less than 60 min. The resultant plasma samples will be immediately separated divided into 2 aliquots (˜75 μL each) and transferred to cryogenic vial. Samples will be maintained on wet ice throughout processing, and stored in a freezer at −75±15° C. prior to analysis. Samples should be protected from ambient light (under sodium lamp).
Calibration standard working solutions were prepared at concentrations of 2, 5, 10, 20, 100, 500, 1000, 5000, 10000 ng/mL by serial dilution of the standard stock solution in 1:1 acetonitrile:water. Quality control working solutions at concentrations of 5, 10, 20, 500 and 8000 ng/mL were prepared by serial dilution of the standard stock solution in 1:1 acetonitrile:water. The QC samples were prepared on the day of analysis in the same way as calibration standards.
Samples were prepared with 5 μL of each calibration standard working solution (2, 5, 10, 20, 100, 500, 1000, 5000, 10000 ng/mL) added to 50 μL of the blank Cynomolgus Monkeys plasma to achieve calibration standards concentrations of 0.2, 0.5, 1, 2, 10, 50, 100, 500, 1000 ng/mL (relative to a 50-4, plasma aliquot). Quality Control (QC) samples at 0.5 ng/mL (low-1), 1 ng/mL (low-2), 2 ng/mL (low-3), 50 ng/mL (mid) and 800 ng/mL (high) for plasma were prepared independently for those used for the calibration curves.
Total volumes of 55 μL of standards, 55 μL of QC samples and 55 μL of unknown samples (50 μL of plasma with 5 μL of 1:1 acetonitrile:water) were added to 200 μL of acetonitrile containing IS to precipitate proteins. Then the samples were vortexed for 30 sec. […] All of the samples were processed on ice.
The LC-MS/MS system consisted of two Shimadzu LC-30AD pumps, a DGU-20A5R degasser, a Rack changer II and an AB Sciex Triple Quad 5500 LC/MS/MS mass spectrometer. Chromatographic separation was performed on Agilent ZORBAX XDB-Phenyl 5 μm (50×2.1 mm) at room temperature. The mobile phase was composed of A: 5% Acetonitrile/95% water (0.1% Formic acid); B: 95% Acetonitrile/5% water (0.1% Formic acid). The flow rate was 0.6 mL/min. The injection volume was 2 μL.
A multiple reaction monitoring (MRM) method was selected for quantitative analysis. […] The instrument parameters were set as follows: ion spray voltage: 5500 V; curtain gas: 40 psi; ion source gas 1: 50 psi; ion source gas 2: 50 psi; temperature: 450° C. The compound dependent parameters are listed as follows:
HPLC flow rate was set at 0.6 mL/min with the following conditions:

Structure (SMILES): CN1CCc2cccc3c2[C@@H]1Cc1ccc(O)c(O)c1-3
- Tmax (in vivo [1]): 6 min
- AUC(0-t) (in vivo [1]; AUClast, plasma, Mean, male C57BL/6J mice, single oral dose 25 mg/kg): 857 ng·h/mL
- concentration at 0.5 h (in vivo [1]; Brain concentration, Mean): 65.7 ng/g
- concentration at 1 h (in vivo [1]; Brain concentration, Mean): 22.6 ng/g
- concentration at 2 h (in vivo [1]; Brain concentration, Mean): 16.8 ng/g
- concentration at 3 h (in vivo [1]; Brain concentration, Mean): 11.5 ng/g
- concentration at […] (in vivo [1]; Brain concentration, Mean, male C57BL/6J mice, repeated oral dose 25 mg/kg): 2330 ng/g
- concentration at 2 h (in vivo [1]; Brain concentration, male C57BL/6J mice, repeated oral dose 25 mg/kg, 2 h post last day (Day 4) dose, G3): 10.9 ng/g
- concentration at […] (in vivo [1]; Brain concentration, male C57BL/6J mice, repeated oral dose 25 mg/kg, G3): 1080 ng/g
- concentration at 1 h (in vivo [1]; CSF concentration): 3.71 ng/mL
- concentration at 2 h (in vivo [1]; CSF concentration): 3.08 ng/mL
- concentration at 4 h (in vivo [1]; CSF concentration): 4.08 ng/mL
- concentration at 0.5 h (in vivo [1]; CSF concentration, Mean): 7.7 ng/mL
- concentration at 1 h (in vivo [1]; CSF concentration, Mean): 3.32 ng/mL
- concentration at 2 h (in vivo [1]; CSF concentration, Mean): 3.56 ng/mL
- concentration at 4 h (in vivo [1]; CSF concentration, Mean): 3.42 ng/mL
- concentration at […] (in vivo [1]; CSF concentration, Mean, male C57BL/6J mice, repeated oral dose 25 mg/kg): 50.2 ng/mL
- concentration at […] (in vivo [1]; CSF concentration, male C57BL/6J mice, repeated oral dose 25 mg/kg, G2): 178 ng/mL
- concentration at 1 h (in vivo [1]; CSF concentration, male C57BL/6J mice, single oral dose 25 mg/kg, 1 h, G3): 3.18 ng/mL
- Cmax (in vivo [1]): 200 ng/mL
- Cmax (in vivo [1]; CSF, Mean, male C57BL/6J mice, single oral dose 25 mg/kg): 56.4 ng/mL
- Cmax (in vivo [1]; brain, Mean, male C57BL/6J mice, last day (Day 4) of repeated oral dose 25 mg/kg): 2330 ng/mL
- Cmax (in vivo [1]; brain, Mean, male C57BL/6J mice, single oral dose 25 mg/kg): 729 ng/mL
- Cmax (in vivo [1]; plasma, Mean, male C57BL/6J mice, last day (Day 4) of repeated oral dose 25 mg/kg): 1360 ng/mL
- Cmax (in vivo [1]; plasma, Mean, male C57BL/6J mice, single oral dose 25 mg/kg): 1150 ng/mL
- concentration at 2 h (in vivo [1]; Plasma concentration): 100 ng/mL
- concentration at 8 h (in vivo [1]; Plasma concentration): 0.765 ng/mL
- concentration at 12 h (in vivo [1]; Plasma concentration): 0.198 ng/mL
- concentration at 0.5 h (in vivo [1]; Plasma concentration, Mean): 528 ng/mL
- concentration at 1 h (in vivo [1]; Plasma concentration, Mean): 235 ng/mL
- concentration at 2 h (in vivo [1]; Plasma concentration, Mean): 74.4 ng/mL
- concentration at 3 h (in vivo [1]; Plasma concentration, Mean): 72.4 ng/mL
- concentration at 8 h (in vivo [1]; Plasma concentration, Mean): 0.87 ng/mL
- concentration at 12 h (in vivo [1]; Plasma concentration, Mean): 0.174 ng/mL
- concentration at […] (in vivo [1]; Plasma concentration, Mean, male C57BL/6J mice, repeated oral dose 25 mg/kg): 1360 ng/mL
- concentration at 2 h (in vivo [1]; Plasma concentration, Mean, male C57BL/6J mice, single oral dose 25 mg/kg, 2 h): 122 ng/mL
- concentration at 1 h (in vivo [1]; Plasma concentration, male C57BL/6J mice, repeated oral dose 25 mg/kg, 1 h post last day (Day 4) dose, G1): 112 ng/mL
- concentration at 3 h (in vivo [1]; Plasma concentration, male C57BL/6J mice, repeated oral dose 25 mg/kg, 3 h post last day (Day 4) dose, G3): 73.1 ng/mL
- concentration at 8 h (in vivo [1]; Plasma concentration, male C57BL/6J mice, repeated oral dose 25 mg/kg, 8 h post last day (Day 4) dose, G3): 1.24 ng/mL
- concentration at […] (in vivo [1]; Plasma concentration, male C57BL/6J mice, repeated oral dose 25 mg/kg, G1): 1460 ng/mL
- concentration at […] (in vivo [1]; Plasma concentration, male C57BL/6J mice, repeated oral dose 25 mg/kg, G2): 1520 ng/mL
- concentration at […] (in vivo [1]; Plasma concentration, male C57BL/6J mice, repeated oral dose 25 mg/kg, G3): 1110 ng/mL
- concentration at 1 h (in vivo [1]; Plasma concentration, male C57BL/6J mice, single oral dose 25 mg/kg, 1 h, G2): 162 ng/mL
- concentration at 2 h (in vivo [1]; Plasma concentration, male C57BL/6J mice, single oral dose 25 mg/kg, 2 h, G2): 138 ng/mL
- concentration at 0.5 h (in vivo [2]; animal 168777C): 4.15 ng/mL
- concentration at 0.5 h (in vivo [2]; animal 168779C): 1.26 ng/mL
- concentration at 0.5 h (in vivo [2]; animal 169939C): 0.975 ng/mL
- concentration at 1 h (in vivo [2]; 1 h, animal 169939C): 2.81 ng/mL
- concentration at 2 h (in vivo [2]; animal 168777C): 6.27 ng/mL
- concentration at 2 h (in vivo [2]; animal 168779C): 6.27 ng/mL
- concentration at 4 h (in vivo [2]; animal 168779C): 8.04 ng/mL
- concentration at 4 h (in vivo [2]; animal 169939C): 5.91 ng/mL
- concentration at 8 h (in vivo [2]; 8 h, animal 168777C): 1.13 ng/mL

From patent US20230141988A1, “PHARMACEUTICAL COMPOSITION FOR USE IN THE TREATMENT OF NEUROLOGICAL DISEASES” (Aclipse One Inc., priority 2020, published 2023)
